Experimental data as given in patent US10813938B2 (priority 2015, dated 2020).
Values after ≈ are worked out from the molar mass of the structure shown.

Tests used:
[1] = RH stability study (~97% RH, XRPD before/after); conditions: ~97% relative humidity, 1 day, ambient temperature; FIG. 16
physchem = conditions: pH 6.8, aqueous buffer, thermodynamic from solid
Procedure: The injection volume was 15 μL. […] The following gradient was used: […]

## Cn1c(=O)c2c(ncn2C)n(C)c1=O [Caffeine]
[1]
  Solid form after exposure to ~97% RH (XRPD): conversion to the hydrate

## O=C(O[C@@H]1Cc2c(O)cc(O)cc2O[C@@H]1c1cc(O)c(O)c(O)c1)c1cc(O)c(O)c(O)c1 [EGCG, Epigallocatechin gallate]
physchem
  solubility at 24 h: 24 mg/mL (≈ 52.4 mM)
